In this test the test system is PRKACA-PRKAR2A interaction (SmBiT-PRKACA / LgBiT-PRKAR2A), protein kinase A. Further details: NanoLuc complementation counter-screen in cell extract, PRKACA with PRKAR2A, loss of luminescence, detects NanoLuc interference. Conditions: 0.5 h, 20 µM, inhibitor.
Where [1] appears, read: counter-screen for NanoLuc interference.
[2] abbreviates: counter-screen for NanoLuc interference, Inh (PKA).

Counter-ions that a name gives are not always drawn. Like-named read-outs stand apart in the source and are kept apart here. Bridge positions count the residues as written; N and C are the ends. Square brackets hold non-standard residues; d marks the D form. Ends that are not written are not given here. Peptide text beside a SMILES is read from it. hArg = N=C(N)NCCCC[C@H](N)C(=O)O; Mpa = O=C(O)CCS

For `O=C(CCCCCCNC(=O)c1cnc(N(c2ccccc2)c2ccccc2)nc1)NO` [UM0141695:01, Rocilinostat (ACY-1215)], the “Inh (PKA)” value under setting [1] is on record as 1.949%. As for `CN(c1ncccc1CNc1nc(Nc2ccc3c(c2)CC(=O)N3)ncc1C(F)(F)F)S(C)(=O)=O` [UM0141986:01, PF-00562271], the “Inh (PKA)” value under setting [2] came to 56.79%.

In the case of `S=C(S)O[C@@H]1C[C@@H]2C[C@@H]1[C@H]1CCC[C@@H]21` [UM0141538:01, D609], under setting [1], the “Inh (PKA)” value is recorded as 17.68%. Regarding `CN(C)c1ccc(-c2nc3ncc(Cl)c(N4CCN(CC(=O)Nc5nccs5)CC4)c3[nH]2)cc1` [UM0141726:01, CCT129202], under setting [1], the “Inh (PKA)” value is recorded as 76.32%. Consider `Nc1ncnc2c1C(=O)N(c1ccc([C@H]3CC[C@H](CC(=O)O)CC3)cc1)CCO2` [UM0141824:01, PF-04620110], for which the “Inh (PKA)” value under setting [1] is given as 1.569%. Still for that read-out and setting: under `COc1ccc(N(C)c2nc(C)nc3ccccc23)cc1` [UM0142800:01, MPC 6827 hydrochloride] stands 22.54%. Turning to `NCCc1c[nH]cn1` [UM0142362:01, Histamine Phosphate], the “Inh (PKA)” value under setting [2] is on record as -0.9808%. As to `Cc1ccc(C(=O)Nc2ccc(Oc3cc4cnn(C)c4cc3-c3cn[nH]c3)c(F)c2)c(=O)n1-c1ccc(F)cc1` [UM0141582:01, LY2801653], the “Inh (PKA)” value under setting [1] is 33.02%.

As to `CC(=O)c1cc2c(o1)C(=O)c1ccccc1C2=O` [UM0142718:01, Napabucasin], the “Inh (PKA)” value under setting [1] is 2.166%. Consider `Nc1ncnc2c1c(-c1cnc3[nH]ccc3c1)nn2C1CCCC1` [UM0142428:01, PP121], for which, under setting [1], the “Inh (PKA)” value was 28.88%.

Regarding `CC(C)(C)c1ccc(CN2CCN(C(c3ccccc3)c3ccc(Cl)cc3)CC2)cc1` (centres unmarked) [UM0142302:01, Buclizine HCl], the “Inh (PKA)” value under setting [1] is listed as 2.001%.

In the case of `CN(C)C(=O)[C@H](O)[C@H](Cc1ccccc1)NC(=O)c1cc2cc(Cl)ccc2[nH]1` [UM0142029:01, CP-91149], the “Inh (PKA)” value under setting [1] worked out at 53.3%. On the same count and under the same terms, the value for `CC(C)NCC(O)c1ccc(NS(C)(=O)=O)cc1` (centres unmarked) [UM0142510:01, Sotalol hydrochloride] was -0.9356%.

Turning to `COc1cc(OCc2cccc(-c3ccccc3)c2C)cc(OC)c1CN1CCCC[C@H]1C(=O)O` [UM0142755:01, PD-1/PD-L1 inhibitor 1], the “Inh (PKA)” value under setting [1] is reported as 7.667%. As for `CN(C)Cc1cccc(N/C(=C2\C(=O)Nc3cc(C(=O)N(C)C)ccc32)c2ccccc2)c1` [BIX02189], under setting [1], the “Inh (PKA)” value was 9.078%. On the same count and under the same terms, under `CN1C/C(=C/c2ccc(B(O)O)cc2)C(=O)/C(=C\c2ccc(B(O)O)cc2)C1` [UM0141922:01, AM 114] stands 1.277%. Same read-out and setting: the value for `COc1ccc(-n2nc(C(N)=O)c3c2C(=O)N(c2ccc(N4CCCCC4=O)cc2)CC3)cc1` [UM0141797:01, Apixaban] was 1.88%; that for `COCC(=O)NC/C=C/c1ccc2ncnc(Nc3ccc(Oc4ccc(C)nc4)c(C)c3)c2c1` [UM0141457:01, CP-724714] was 30.01%.

For `O=c1ncccn1[C@@H]1O[C@H](CO)[C@@H](O)[C@H]1O` [UM0128549:02, Zebularine], the “Inh (PKA)” value under setting [1] is reported as -0.4631%. On to `COC(=O)c1ccc([C@@H]2c3[nH]c4ccccc4c3C[C@@H](C(=O)OC)N2C(=O)CCl)cc1` [UM0142735:01, RSL3], for which, under setting [1], the “Inh (PKA)” value is given as 22.95%.

With “QVPSRPNRAP [UM0141376:01, Dynamin inhibitory peptide]”, under setting [1], the “Inh (PKA)” value is listed as 1.092%. The same measure, in the same setting: the value for `O=C1[C@H](CC[C@H](O)c2ccc(F)cc2)[C@@H](c2ccc(O)cc2)N1c1ccc(F)cc1` [UM0142039:01, Ezetimibe] was 29.66%; that for `N=C(N)NCCCC[C@@H]1NC(=O)CCSSC[C@@H](C(N)=O)NC(=O)[C@@H]2CCCN2C(=O)[C@H](Cc2c[nH]c3ccccc23)NC(=O)[C@H](CC(=O)O)NC(=O)CNC1=O` [UM0142520:01, Eptifibatide] ([Mpa][hArg]GDWPC-NH2; disulfide 1-7) was -0.06094%; that for `O=C(CSc1nc2c(c(=O)n1-c1ccccc1)SCC2)Nc1ccc(-c2ccccc2)cn1` [UM0142486:01, IWP-L6] was 23.47%. For `c1ccc(-c2nn3c(c2-c2ccnc4cc(OCCN5CCOCC5)ccc24)CCC3)nc1` [UM0142054:01, LY2109761], the “Inh (PKA)” value under setting [1] is -0.08675%. Still for that read-out and setting: under `Nc1cccc2c1CN(C1CCC(=O)NC1=O)C2=O` (centres unmarked) [UM0130980:03, Lenalidomide (CC-5013)] stands -1.488%. As for `CN1CCc2nc(C(=O)N[C@@H]3C[C@@H](C(=O)N(C)C)CC[C@@H]3NC(=O)C(=O)Nc3ccc(Cl)cn3)sc2C1` [UM0141546:01, Edoxaban tosylate monohydrate], under setting [2], the “Inh (PKA)” value was determined as 2.853%. Regarding `Cn1c(=O)c2c(ncn2CC(O)CO)n(C)c1=O` (centres unmarked) [UM0052188:04, Dyphylline], under setting [1], the “Inh (PKA)” value is 1.648%. `O=C(Oc1ccc([N+](=O)[O-])cc1)N1CCC(C(O)(c2ccc3c(c2)OCO3)c2ccc3c(c2)OCO3)CC1` [UM0142396:01, JZL184]: the “Inh (PKA)” value was found to be 16.72%. With `C[C@](N)(Cc1ccc(O)c(O)c1)C(=O)O` [UM0118624:04, Methyldopa], the “Inh (PKA)” value under setting [1] is recorded as -0.4014%. With `CCN(CC)Cc1ccc2cc(COC(=O)Nc3ccc(C(=O)NO)cc3)ccc2c1` [UM0141700:01, ITF2357 (Givinostat)], under setting [1], the “Inh (PKA)” value is given as 1.847%.

Consider `O=c1[nH]cnc2c1ncn2[C@H]1CC[C@@H](CO)O1` [UM0142031:01, Didanosine], for which the “Inh (PKA)” value under setting [1] was -1.093%.

Regarding `O=c1cc(N2CCOCC2)oc2c(-c3ccccc3)cccc12` [UM0127884:02, LY 294002], the “Inh (PKA)” value under setting [1] is listed as 0.5276%. Same read-out and setting: under `NCCCC[C@@H]1NC(=O)[C@@H](Cc2ccccc2)NC(=O)[C@H](CC(=O)O)NC(=O)CNC(=O)[C@H](CCCN=C(N)N)NC1=O` [UM0141923:01, Cyclo (-RGDfK)] stands -1.971%; under `CNC(=O)c1cccc(-c2ccc3c(N4CCOC[C@@H]4C)nc(N4CCOC[C@@H]4C)nc3n2)c1` [UM0142021:01, AZD2014], 7.565%. On to `Cc1nc(Nc2n[nH]c3c2CN(C(=O)N[C@H](CN(C)C)c2ccccc2)C3(C)C)c2sccc2n1` [UM0141601:01, PF-3758309], for which the “Inh (PKA)” value under setting [1] is recorded as 66.65%. As for `COc1ccc(-c2nc3cc(C4=NNC(=O)CC4C)ccc3[nH]2)cc1` (centres unmarked) [UM0141796:01, Pimobendan], the “Inh (PKA)” value under setting [1] is recorded as 10.77%. Same read-out and setting: the value for `CCOC(=O)[C@H](CCc1ccccc1)N[C@H]1CCc2ccccc2N(CC(=O)O)C1=O` [UM0121340:03, Benazepril HCl] was -0.4329%; that for `O=C(O)CCCc1ccccc1` [UM0141598:03, Sodium Phenylbutyrate] was 1.56%.

Regarding `CC(C)C[C@H](NC(=O)[C@@H](NC(=O)c1cccc(-c2ccccc2)n1)[C@@H](C)O)B(O)O` [UM0141664:01, CEP-18770], the “Inh (PKA)” value under setting [1] is given as 2.205%. Regarding `CCC[C@H](NC(=O)/C(C#N)=C/c1cccc(Br)n1)c1ccccc1` [UM0141988:01, WP1130], the “Inh (PKA)” value under setting [1] amounted to 8.904%.

For `CO[C@H]1/C=C/O[C@@]2(C)Oc3c(C)c(O)c4c(O)c(c5c(nc6cc(C)ccn65)c4c3C2=O)NC(=O)/C(C)=C\C=C\[C@H](C)[C@H](O)[C@@H](C)[C@@H](O)[C@@H](C)[C@H](OC(C)=O)[C@@H]1C` [UM0142068:01, Rifaximin (Xifaxan)], the “Inh (PKA)” value under setting [1] stood at 35.34%. With `COC(=O)N[C@H](C(=O)N1CC2(CC2)C[C@H]1c1nc(-c2ccc3c(c2)C(F)(F)c2cc(-c4ccc5[nH]c([C@@H]6[C@H]7CC[C@H](C7)N6C(=O)[C@@H](NC(=O)OC)C(C)C)nc5c4)ccc2-3)c[nH]1)C(C)C` [UM0141578:01, Ledipasvir], under setting [1], the “Inh (PKA)” value is 1.236%. For `COc1cccc2c1C(=O)c1c(O)c3c(c(O)c1C2=O)C[C@@](O)(C(C)=O)C[C@@H]3O[C@H]1C[C@H](N)[C@H](O)[C@H](C)O1` [UM0118677:04, Daunorubicin HCl], the “Inh (PKA)” value under setting [1] stood at 42.12%. Same read-out and setting: under `N#Cc1ccc(OC2CCC(NC(=O)CCSc3nc4ccccc4c(=O)[nH]3)CC2)cc1` (centres unmarked) [UM0142092:01, Tankyrase Inhibitors (TNKS) 49] stands 5.667%. Take `O=C(/C=C/c1cccnc1)NCCCCC1CCN(C(=O)c2ccccc2)CC1` [UM0141821:01, FK866 (APO866)]: under setting [2], the “Inh (PKA)” value stood at 3.817%. For `CNCc1ccc(-c2[nH]c3cc(F)cc4c3c2CCNC4=O)cc1` [UM0142149:01, Rucaparib (free base)], under setting [2], the “Inh (PKA)” value is 8.491%. For `OC[C@@H](O)[C@H](O)[C@@H](O)CO` [UM0050273:05, Xylitol], under setting [1], the “Inh (PKA)” value is recorded as -1.935%. As to `CC1(C)O[C@H]2CC(=O)OC[C@]23[C@H]2CC[C@@]4(C)[C@H](c5ccoc5)OC(=O)[C@H]5O[C@]54[C@]2(C)C(=O)C[C@@H]13` [UM0141579:01, Limonin], under setting [1], the “Inh (PKA)” value is recorded as 0.3774%.

As for `O=C(Nc1cccc(Cl)c1)Nc1ncc(CCNc2ncnc3ccsc23)s1` [UM0141718:01, SNS-314 Mesylate], the “Inh (PKA)” value under setting [1] was found to be 29.21%. In the case of `c1ccc2c(c1)CCCC2C1=NCCN1` (centres unmarked) [UM0142214:01, Tetrahydrozoline HCl], the “Inh (PKA)” value under setting [1] was -0.4463%. For the compound `O=c1cc(-c2ccc(O)c(O)c2)oc2cc(O)cc(O)c12` [UM0133934:02, Luteolin], the “Inh (PKA)” value under setting [1] is 25.55%.

For the compound `COC[C@H](NC(=O)c1cnc(C)s1)C(=O)N[C@@H](COC)C(=O)N[C@@H](Cc1ccccc1)C(=O)[C@@]1(C)CO1` [UM0141434:01, Oprozomib (ONX-0912)], the “Inh (PKA)” value under setting [1] is given as -0.3511%.

Regarding `Nc1nc(F)nc2c1ncn2[C@@H]1O[C@H](CO)[C@@H](O)[C@@H]1O` [UM0141888:01, Fludarabine], the “Inh (PKA)” value under setting [1] amounted to 1.153%. The same measure, in the same setting: the value for `O=C(NOCC1CC1)c1ccc(F)c(F)c1Nc1ccc(I)cc1Cl` [UM0130972:02, PD184352 (CI-1040)] was 70.13%; that for `CC(C)c1onc(-c2c(Cl)cccc2Cl)c1COc1ccc(/C=C/c2cccc(C(=O)O)c2)c(Cl)c1` [UM0142293:01, GW4064] was 30.87%.

(Values after article PMC9995496, “A screen for MeCP2-TBL1 interaction inhibitors using a luminescence-based assay” (Scientific Reports, 2023).)
